Reference: patent US20200325177A1, “METHODS OF MAKING STREPTOGRAMIN COMPOSITIONS AND THE USE THEREOF” (THE REGENTS OF THE UNIVERSITY OF CALIFORNIA, priority 2017, published 2020)
In brackets after ≈: the same amount, converted by molar mass. Read-outs that look alike come from different tables or passages of the source.

Tests used:
Format in all cases: cell-based
E. faecalis = assay: MIC, Gram-positive bacteria: E. faecalis; conditions: Enterococcus faecalis, column 1, read-out: Minimal Inhibitory Concentration (MIC) E. faecalis
E. faecium ATCC 35667 = assay: MIC, Gram-positive bacteria: E. faecium ATCC 35667; conditions: Enterococcus faecium, ATCC35667, column 2, read-out: Minimal Inhibitory Concentration (MIC) E. faecium ATCC 35667
E. faecium VRE; vanA = assay: MIC, Gram-positive bacteria: E. faecium VRE; vanA; conditions: Enterococcus faecium, column 3, read-out: Minimal Inhibitory Concentration (MIC) E. faecium VRE
S. aureus = assay: MIC, Gram-positive bacteria: S. aureus (strains not named); conditions: Staphylococcus aureus, read-out: Minimal Inhibitory Concentration (MIC) S. aureus
[1] = system: S. aureus Vat A streptogramin; assay: MIC, Gram-positive bacteria: S. aureus Vat A streptogramin; conditions: Staphylococcus aureus, read-out: Minimal Inhibitory Concentration (MIC) S. aureus Vat A streptogramin
[2] = system: S. aureus Linezolid-resistant; cfr; assay: MIC, Gram-positive bacteria: S. aureus Linezolid-resistant; cfr; conditions: Staphylococcus aureus, column 9, read-out: Minimal Inhibitory Concentration (MIC) S. aureus Linezolid-resistant
S. pneumoniae = assay: MIC, Gram-positive bacteria: S. pneumoniae; conditions: Streptococcus pneumoniae, column 10, read-out: Minimal Inhibitory Concentration (MIC) S. pneumoniae
[3] = system: K. pneumoniae multidrug-resistant; assay: MIC, Gram-negative bacteria: K. pneumoniae multidrug-resistant; conditions: Klebsiella pneumoniae, read-out: Minimal Inhibitory Concentration (MIC) K. pneumoniae multidrug-resistant
P. aeruginosa ATCC 27853 = assay: MIC, Gram-negative bacteria: P. aeruginosa ATCC 27853; conditions: Pseudomonas aeruginosa, ATCC27853, read-out: Minimal Inhibitory Concentration (MIC) P. aeruginosa ATCC 27853
[4] = system: P. aeruginosa MDR clinical isolate; assay: MIC, Gram-negative bacteria: P. aeruginosa MDR clinical isolate; conditions: Pseudomonas aeruginosa, read-out: Minimal Inhibitory Concentration (MIC) P. aeruginosa MDR clinical isolate
H. influenzae ATCC 49247 = assay: MIC, Gram-negative bacteria: H. influenzae ATCC 49247; conditions: Haemophilus influenzae, ATCC49247, read-out: Minimal Inhibitory Concentration (MIC) H. influenzae ATCC 49247
Gram-Negative Organisms = assay: microbe, parasite or virus in culture
[5] = first unnamed S. aureus column (c4)
[6] = fourth unnamed S. aureus column (c8)
[7] = second unnamed S. aureus column (c6)
[8] = third unnamed S. aureus column (c7)
[9] = Acinetobacter baumannii, ATCC19606, read-out: Minimal Inhibitory Concentration (MIC), A. baumannii ATCC 19606
[10] = Escherichia coli, ATCC25922, read-out: Minimal Inhibitory Concentration (MIC), E. coli ATCC 25922
[11] = Escherichia coli, read-out: Minimal Inhibitory Concentration (MIC), E. coli BAS2006, OMP C, OMP F
[12] = Escherichia coli, read-out: Minimal Inhibitory Concentration (MIC), E. coli olC efflux defective
[13] = Escherichia coli, read-out: Minimal Inhibitory Concentration (MIC), E. coli permeability mutant BAS1314, IMP4213ZAB::TN10
[14] = Escherichia coli, read-out: Minimal Inhibitory Concentration (MIC), E. coli ΔompC768, KanR insert
[15] = Klebsiella pneumoniae, ATCC43816, read-out: Minimal Inhibitory Concentration (MIC), K. pneumoniae ATCC 43816

Structure (SMILES): CC1=C\[C@@H](O)CC(=O)Cc2nc(co2)C(=O)N2CCC[C@@H]2C(=O)O[C@H]([C@H](C)COC(=O)Nc2cc(C)on2)[C@H](C)/C=C/C(=O)NC\C=C\1 [SA0110225]
- MIC (E. faecalis): > 64 µg/mL
- MIC (E. faecium ATCC 35667): 32 µg/mL (≈ 47.9 µM)
- MIC (E. faecium VRE; vanA): 64 µg/mL (≈ 95.8 µM)
- MIC (S. aureus; [5]): > 64 µg/mL
- MIC (S. aureus; [6]): 64 µg/mL (≈ 95.8 µM)
- MIC (S. aureus; [7]): 64 µg/mL (≈ 95.8 µM)
- MIC (S. aureus; [8]): > 64 µg/mL
- MIC ([1]; Gram-positive, column 5): > 64 µg/mL
- MIC [2]: > 64 µg/mL
- MIC (S. pneumoniae): 32 µg/mL (≈ 47.9 µM)
- MIC [3]: > 64 µg/mL
- MIC (P. aeruginosa ATCC 27853): > 64 µg/mL
- MIC [4]: > 64 µg/mL
- MIC (H. influenzae ATCC 49247): 16 µg/mL (≈ 24 µM)
- MIC (Gram-Negative Organisms; [9]): > 64 µg/mL
- MIC (Gram-Negative Organisms; [10]): > 64 µg/mL
- MIC (Gram-Negative Organisms; [11]): > 64 µg/mL
- MIC (Gram-Negative Organisms; [12]): 4 µg/mL (≈ 5.99 µM)
- MIC (Gram-Negative Organisms; [13]): 8 µg/mL (≈ 12 µM)
- MIC (Gram-Negative Organisms; [14]): > 64 µg/mL
- MIC (Gram-Negative Organisms; [15]): > 64 µg/mL

Structure (SMILES): CC1=C\[C@@H](O)CC(=O)Cc2nc(co2)C(=O)N2CCC[C@@H]2C(=O)O[C@H]([C@@H](C)COC(=O)Nc2cc(C)on2)[C@H](C)/C=C/C(=O)NC\C=C\1 [SA0110115]
- MIC (E. faecalis): > 64 µg/mL
- MIC (E. faecium ATCC 35667): 32 µg/mL (≈ 47.9 µM)
- MIC (E. faecium VRE; vanA): > 64 µg/mL
- MIC (S. aureus; [5]): > 64 µg/mL
- MIC (S. aureus; [6]): 64 µg/mL (≈ 95.8 µM)
- MIC (S. aureus; [7]): > 64 µg/mL
- MIC (S. aureus; [8]): > 64 µg/mL
- MIC ([1]; Gram-positive, column 5): > 64 µg/mL
- MIC [2]: > 64 µg/mL
- MIC (S. pneumoniae): 16 µg/mL (≈ 24 µM)
- MIC [3]: > 64 µg/mL
- MIC (P. aeruginosa ATCC 27853): > 64 µg/mL
- MIC [4]: > 64 µg/mL
- MIC (H. influenzae ATCC 49247): 64 µg/mL (≈ 95.8 µM)
- MIC (Gram-Negative Organisms; [9]): > 64 µg/mL
- MIC (Gram-Negative Organisms; [10]): > 64 µg/mL
- MIC (Gram-Negative Organisms; [11]): 64 µg/mL (≈ 95.8 µM)
- MIC (Gram-Negative Organisms; [12]): 8 µg/mL (≈ 12 µM)
- MIC (Gram-Negative Organisms; [13]): 16 µg/mL (≈ 24 µM)
- MIC (Gram-Negative Organisms; [15]): > 64 µg/mL

Structure (SMILES): CC1=C\[C@@H](O)CC(=O)Cc2nc(co2)C(=O)N2CCC[C@@H]2C(=O)O[C@H]([C@H](C)COC(=O)Nc2csc(C)n2)[C@H](C)/C=C/C(=O)NC\C=C\1 [SA0110214]
- MIC (E. faecalis): > 64 µg/mL
- MIC (E. faecium ATCC 35667): 32 µg/mL (≈ 46.8 µM)
- MIC (E. faecium VRE; vanA): 64 µg/mL (≈ 93.6 µM)
- MIC (S. aureus; [5]): 64 µg/mL (≈ 93.6 µM)
- MIC (S. aureus; [6]): 64 µg/mL (≈ 93.6 µM)
- MIC (S. aureus; [7]): 64 µg/mL (≈ 93.6 µM)
- MIC (S. aureus; [8]): > 64 µg/mL
- MIC ([1]; Gram-positive, column 5): > 64 µg/mL
- MIC [2]: > 64 µg/mL
- MIC (S. pneumoniae): 32 µg/mL (≈ 46.8 µM)
- MIC [3]: > 64 µg/mL
- MIC (P. aeruginosa ATCC 27853): > 64 µg/mL
- MIC [4]: > 64 µg/mL
- MIC (H. influenzae ATCC 49247): 16 µg/mL (≈ 23.4 µM)
- MIC (Gram-Negative Organisms; [9]): > 64 µg/mL
- MIC (Gram-Negative Organisms; [10]): > 64 µg/mL
- MIC (Gram-Negative Organisms; [11]): 64 µg/mL (≈ 93.6 µM)
- MIC (Gram-Negative Organisms; [12]): 8 µg/mL (≈ 11.7 µM)
- MIC (Gram-Negative Organisms; [13]): 8 µg/mL (≈ 11.7 µM)
- MIC (Gram-Negative Organisms; [14]): > 64 µg/mL
- MIC (Gram-Negative Organisms; [15]): > 64 µg/mL

Structure (SMILES): COc1ccc(NC(=O)OC[C@H](C)[C@H]2OC(=O)[C@H]3CCCN3C(=O)c3coc(n3)CC(=O)C[C@H](O)/C=C(C)/C=C/CNC(=O)/C=C/[C@H]2C)cc1 [SA0110040]
- MIC (E. faecalis): > 64 µg/mL
- MIC (E. faecium ATCC 35667): 16 µg/mL (≈ 23.1 µM)
- MIC (E. faecium VRE; vanA): 64 µg/mL (≈ 92.4 µM)
- MIC (S. aureus; [5]): 32 µg/mL (≈ 46.2 µM)
- MIC (S. aureus; [6]): 16 µg/mL (≈ 23.1 µM)
- MIC (S. aureus; [7]): 32 µg/mL (≈ 46.2 µM)
- MIC (S. aureus; [8]): 64 µg/mL (≈ 92.4 µM)
- MIC ([1]; Gram-positive, column 5): > 64 µg/mL
- MIC [2]: > 64 µg/mL
- MIC (S. pneumoniae): 16 µg/mL (≈ 23.1 µM)
- MIC [3]: > 64 µg/mL
- MIC (P. aeruginosa ATCC 27853): > 64 µg/mL
- MIC [4]: > 64 µg/mL
- MIC (H. influenzae ATCC 49247): 16 µg/mL (≈ 23.1 µM)
- MIC (Gram-Negative Organisms; [9]): > 64 µg/mL
- MIC (Gram-Negative Organisms; [10]): > 64 µg/mL
- MIC (Gram-Negative Organisms; [11]): 16 µg/mL (≈ 23.1 µM)
- MIC (Gram-Negative Organisms; [12]): 2 µg/mL (≈ 2.89 µM)
- MIC (Gram-Negative Organisms; [13]): 8 µg/mL (≈ 11.5 µM)
- MIC (Gram-Negative Organisms; [15]): > 64 µg/mL

Structure (SMILES): CC1=C\[C@@H](O)C[C@@H](O)Cc2nc(cs2)C(=O)N2CCC[C@@H]2C(=O)O[C@H](C(C)C)[C@H](C)/C=C/C(=O)NC\C=C\1 [SA0110264]
- MIC (E. faecalis): > 64 µg/mL
- MIC (E. faecium ATCC 35667): 1 µg/mL (≈ 1.83 µM)
- MIC (E. faecium VRE; vanA): 4 µg/mL (≈ 7.33 µM)
- MIC (S. aureus; [5]): 8 µg/mL (≈ 14.7 µM)
- MIC (S. aureus; [6]): 8 µg/mL (≈ 14.7 µM)
- MIC (S. aureus; [7]): 16 µg/mL (≈ 29.3 µM)
- MIC (S. aureus; [8]): 16 µg/mL (≈ 29.3 µM)
- MIC ([1]; Gram-positive, column 5): > 64 µg/mL
- MIC [2]: > 64 µg/mL
- MIC (S. pneumoniae): 2 µg/mL (≈ 3.67 µM)
- MIC [3]: > 64 µg/mL
- MIC (P. aeruginosa ATCC 27853): > 64 µg/mL
- MIC [4]: > 64 µg/mL
- MIC (H. influenzae ATCC 49247): 1 µg/mL (≈ 1.83 µM)
- MIC (Gram-Negative Organisms; [9]): > 64 µg/mL
- MIC (Gram-Negative Organisms; [10]): > 64 µg/mL
- MIC (Gram-Negative Organisms; [11]): 4 µg/mL (≈ 7.33 µM)
- MIC (Gram-Negative Organisms; [12]): 2 µg/mL (≈ 3.67 µM)
- MIC (Gram-Negative Organisms; [13]): 1 µg/mL (≈ 1.83 µM)
- MIC (Gram-Negative Organisms; [14]): > 64 µg/mL
- MIC (Gram-Negative Organisms; [15]): > 64 µg/mL

Structure (SMILES): CC1=C\[C@@H](O)CC(=O)Cc2nc(c([Si](C)(C)C)o2)C(=O)N2CCC[C@@H]2C(=O)O[C@H](C(C)C)[C@H](C)/C=C/C(=O)NC\C=C\1 [SA0110261]
- MIC (E. faecalis): > 64 µg/mL
- MIC (E. faecium ATCC 35667): 64 µg/mL (≈ 107 µM)
- MIC (E. faecium VRE; vanA): > 64 µg/mL
- MIC (S. aureus; [5]): > 64 µg/mL
- MIC (S. aureus; [6]): 64 µg/mL (≈ 107 µM)
- MIC (S. aureus; [7]): 64 µg/mL (≈ 107 µM)
- MIC (S. aureus; [8]): > 64 µg/mL
- MIC [1]: > 64 µg/mL
- MIC [2]: > 64 µg/mL
- MIC (S. pneumoniae): 64 µg/mL (≈ 107 µM)
- MIC [3]: > 64 µg/mL
- MIC (P. aeruginosa ATCC 27853): > 64 µg/mL
- MIC [4]: > 64 µg/mL
- MIC (H. influenzae ATCC 49247): > 64 µg/mL
- MIC (Gram-Negative Organisms; [9]): > 64 µg/mL
- MIC (Gram-Negative Organisms; [10]): > 64 µg/mL
- MIC (Gram-Negative Organisms; [11]): > 64 µg/mL
- MIC (Gram-Negative Organisms; [12]): 64 µg/mL (≈ 107 µM)
- MIC (Gram-Negative Organisms; [13]): 16 µg/mL (≈ 26.7 µM)
- MIC (Gram-Negative Organisms; [14]): > 64 µg/mL
- MIC (Gram-Negative Organisms; [15]): > 64 µg/mL
